In US20260231994A1, “TASTE-ENHANCING COMPOSITION, METHOD FOR PRODUCING SAME, FOOD PRODUCT, AND METHOD FOR ENHANCING TASTE OF FOOD PRODUCT” (HOUSE FOODS GROUP INC., priority 2023, published 2026):

Key:
Type in all cases: in vivo
[1] = Experiment 6 sensory evaluation of cyclic dipeptides, “top sharp saltiness”
Outline: (§1)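 Reduced-sodium curry roux (44 g in 300 g hot water) was spiked with cyclic dipeptide solutions matching heat-treated coriander or paprika levels, at 0.5% or 1.0% (w/w) final. Three evaluators scored each sample against unspiked reduced-sodium and common roux. Mean scores were graded F to AA.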

[2] = Experiment 6 sensory evaluation of cyclic dipeptides, “middle fullness (enhanced thickness)”
Outline: as §1

[3] = Experiment 6 sensory evaluation of cyclic dipeptides, “boosting of last flavor (aftertaste)”
Outline: as §1

[4] = Additive amount paprika 0.5% (heat-treated paprika equivalent aqueous solution, final 0.5% (w/w)), reduced-sodium curry roux
[5] = Additive amount paprika 0.5%, reduced-sodium curry roux
[6] = heat-treated paprika equivalent aqueous solution of cyclic dipeptide, final 1.0% (w/w) in reduced-sodium curry roux dispersion
[7] = heat-treated paprika equivalent aqueous solution of cyclic dipeptide, final 1.0% (w/w) in reduced-sodium curry roux dispersion, 3 evaluators
[8] = Additive amount coriander 0.5% (heat-treated coriander equivalent aqueous solution, final 0.5% (w/w)), reduced-sodium curry roux
[9] = Additive amount coriander 0.5%, reduced-sodium curry roux
[10] = heat-treated coriander equivalent aqueous solution of cyclic dipeptide, final 1.0% (w/w) in reduced-sodium curry roux dispersion
[11] = heat-treated coriander equivalent aqueous solution of cyclic dipeptide, final 1.0% (w/w) in reduced-sodium curry roux dispersion, 3 evaluators

Row | Substance | Top sharp saltiness Average [1, 4] [points] | Top sharp saltiness Evaluation [1, 5] | Top sharp saltiness Evaluation [1, 6] | Top sharp saltiness Average [1, 7] [points] | Middle fullness Average [2, 5] [points] | Middle fullness Evaluation [2, 5] | Middle fullness Evaluation [2, 6] | Middle fullness Average [2, 7] [points] | Top sharp saltiness Average [1, 8] [points] | Top sharp saltiness Evaluation [1, 9] | Top sharp saltiness Evaluation [1, 10] | Top sharp saltiness Average [1, 11] [points] | Middle fullness Average [2, 9] [points] | Middle fullness Evaluation [2, 9] | Middle fullness Evaluation [2, 10] | Middle fullness Average [2, 11] [points] | Bosting of last flavor Average [3, 9] [points] | Bosting of last flavor Evaluation [3, 9] | Bosting of last flavor Evaluation [3, 10] | Bosting of last flavor Average [3, 11] [points] | other results
1 | cyclic (Phe-Tyr) [Coriander ID 41] | 1.8 | C (“C” when it was 1.1 or higher and 1.9 or lower) | A (“A” when it was 2.6 or higher and 2.9 or lower) | 2.7 | 2.0 | B (“B” when it was 2.0 or higher and 2.5 or lower) | AA (“AA” when it was 3.0 or higher) | 3.0 | – | – | – | – | – | – | – | – | – | – | – | – | Bosting of last flavor Average [3, 5]: 2.0 points; Bosting of last flavor Evaluation [3, 5]: B (“B” when it was 2.0 or higher and 2.5 or lower); Bosting of last flavor Evaluation [3, 6]: A (“A” when it was 2.6 or higher and 2.9 or lower); Bosting of last flavor Average [3, 7]: 2.8 points
2 | cyclic (Pro-Asp) [Coriander ID 16] | 1.8 | C (“C” when it was 1.1 or higher and 1.9 or lower) | C (“C” when it was 1.1 or higher and 1.9 or lower) | 1.8 | 2.0 | B (“B” when it was 2.0 or higher and 2.5 or lower) | B (“B” when it was 2.0 or higher and 2.5 or lower) | 2.0 | – | – | – | – | – | – | – | – | – | – | – | – | Bosting of last flavor Average [3, 5]: 2.2 points; Bosting of last flavor Evaluation [3, 5]: B (“B” when it was 2.0 or higher and 2.5 or lower); Bosting of last flavor Evaluation [3, 6]: C (“C” when it was 1.1 or higher and 1.9 or lower); Bosting of last flavor Average [3, 7]: 1.8 points
3 | cyclic (Pro-Glu) [Coriander ID 48] | – | – | – | – | – | – | – | – | 1.7 | C (“C” when it was 1.1 or higher and 1.9 or lower) | B (“B” when it was 2.0 or higher and 2.5 or lower) | 2.0 | 1.7 | C (“C” when it was 1.1 or higher and 1.9 or lower) | B (“B” when it was 2.0 or higher and 2.5 or lower) | 2.3 | 1.8 | C (“C” when it was 1.1 or higher and 1.9 or lower) | B (“B” when it was 2.0 or higher and 2.5 or lower) | 2.3 | –
4 | cyclic (Pro-Leu/Ile) [Coriander ID 39] | – | – | – | – | – | – | – | – | 1.5 | C (“C” when it was 1.1 or higher and 1.9 or lower) | C (“C” when it was 1.1 or higher and 1.9 or lower) | 1.8 | 1.8 | C (“C” when it was 1.1 or higher and 1.9 or lower) | C (“C” when it was 1.1 or higher and 1.9 or lower) | 1.8 | 2.2 | B (“B” when it was 2.0 or higher and 2.5 or lower) | C (“C” when it was 1.1 or higher and 1.9 or lower) | 1.7 | –
5 | cyclic (Pro-Pro) [Coriander ID 18] | – | – | – | – | – | – | – | – | 2.2 | B (“B” when it was 2.0 or higher and 2.5 or lower) | B (“B” when it was 2.0 or higher and 2.5 or lower) | 2.3 | 2.5 | B (“B” when it was 2.0 or higher and 2.5 or lower) | A (“A” when it was 2.6 or higher and 2.9 or lower) | 2.7 | 2.3 | B (“B” when it was 2.0 or higher and 2.5 or lower) | B (“B” when it was 2.0 or higher and 2.5 or lower) | 2.5 | –
6 | cyclic (Pro-Tyr) [Coriander ID 31] | – | – | – | – | – | – | – | – | 2.5 | B (“B” when it was 2.0 or higher and 2.5 or lower) | B (“B” when it was 2.0 or higher and 2.5 or lower) | 2.0 | 2.5 | B (“B” when it was 2.0 or higher and 2.5 or lower) | B (“B” when it was 2.0 or higher and 2.5 or lower) | 2.0 | 2.5 | B (“B” when it was 2.0 or higher and 2.5 or lower) | B (“B” when it was 2.0 or higher and 2.5 or lower) | 2.0 | –
7 | cyclic (Thr-Leu/Ile) [Coriander ID 3] | 2.0 | B (“B” when it was 2.0 or higher and 2.5 or lower) | C (“C” when it was 1.1 or higher and 1.9 or lower) | 1.7 | 2.5 | B (“B” when it was 2.0 or higher and 2.5 or lower) | B (“B” when it was 2.0 or higher and 2.5 or lower) | 2.2 | – | – | – | – | – | – | – | – | – | – | – | – | Bosting of last flavor Average [3, 5]: 3.0 points; Bosting of last flavor Evaluation [3, 5]: AA (“AA” when it was 3.0 or higher); Bosting of last flavor Evaluation [3, 6]: C (“C” when it was 1.1 or higher and 1.9 or lower); Bosting of last flavor Average [3, 7]: 1.7 points
8 | cyclic (Tyr-Asp) | 2.1 | B (“B” when it was 2.0 or higher and 2.5 or lower) | B (“B” when it was 2.0 or higher and 2.5 or lower) | 2.5 | 2.1 | B (“B” when it was 2.0 or higher and 2.5 or lower) | A (“A” when it was 2.6 or higher and 2.9 or lower) | 2.8 | – | – | – | – | – | – | – | – | – | – | – | – | Bosting of last flavor Average [3, 5]: 2.1 points; Bosting of last flavor Evaluation [3, 5]: B (“B” when it was 2.0 or higher and 2.5 or lower); Bosting of last flavor Evaluation [3, 6]: A (“A” when it was 2.6 or higher and 2.9 or lower); Bosting of last flavor Average [3, 7]: 2.8 points
9 | cyclic (Tyr-His) [Coriander ID 50] | – | – | – | – | – | – | – | – | 2.3 | B (“B” when it was 2.0 or higher and 2.5 or lower) | AA (“AA” when it was 3.0 or higher) | 3.3 | 2.5 | B (“B” when it was 2.0 or higher and 2.5 or lower) | AA (“AA” when it was 3.0 or higher) | 3.3 | 2.8 | A (“A” when it was 2.6 or higher and 2.9 or lower) | AA (“AA” when it was 3.0 or higher) | 3.0 | –
10 | cyclic (Val-Arg) [Coriander ID 20] | – | – | – | – | – | – | – | – | 2.7 | A (“A” when it was 2.6 or higher and 2.9 or lower) | C (“C” when it was 1.1 or higher and 1.9 or lower) | 1.7 | 3.3 | AA (“AA” when it was 3.0 or higher) | B (“B” when it was 2.0 or higher and 2.5 or lower) | 2.0 | 3.7 | AA (“AA” when it was 3.0 or higher) | B (“B” when it was 2.0 or higher and 2.5 or lower) | 2.2 | –
